Reference: ChEMBL document CHEMBL5465560, “Selectivity Literature for EUbOPEN Chemogenomic Library” (2024)

Experiments:
[1] = target: T1, Serine/threonine-protein kinase D3 (Homo sapiens) (UniProt O94806); assay: Selectivity interaction (KinomeScan (DiscoverX)) EUB0000229b PRKD3; details: at 10 µM
T1 sequence (whole entry): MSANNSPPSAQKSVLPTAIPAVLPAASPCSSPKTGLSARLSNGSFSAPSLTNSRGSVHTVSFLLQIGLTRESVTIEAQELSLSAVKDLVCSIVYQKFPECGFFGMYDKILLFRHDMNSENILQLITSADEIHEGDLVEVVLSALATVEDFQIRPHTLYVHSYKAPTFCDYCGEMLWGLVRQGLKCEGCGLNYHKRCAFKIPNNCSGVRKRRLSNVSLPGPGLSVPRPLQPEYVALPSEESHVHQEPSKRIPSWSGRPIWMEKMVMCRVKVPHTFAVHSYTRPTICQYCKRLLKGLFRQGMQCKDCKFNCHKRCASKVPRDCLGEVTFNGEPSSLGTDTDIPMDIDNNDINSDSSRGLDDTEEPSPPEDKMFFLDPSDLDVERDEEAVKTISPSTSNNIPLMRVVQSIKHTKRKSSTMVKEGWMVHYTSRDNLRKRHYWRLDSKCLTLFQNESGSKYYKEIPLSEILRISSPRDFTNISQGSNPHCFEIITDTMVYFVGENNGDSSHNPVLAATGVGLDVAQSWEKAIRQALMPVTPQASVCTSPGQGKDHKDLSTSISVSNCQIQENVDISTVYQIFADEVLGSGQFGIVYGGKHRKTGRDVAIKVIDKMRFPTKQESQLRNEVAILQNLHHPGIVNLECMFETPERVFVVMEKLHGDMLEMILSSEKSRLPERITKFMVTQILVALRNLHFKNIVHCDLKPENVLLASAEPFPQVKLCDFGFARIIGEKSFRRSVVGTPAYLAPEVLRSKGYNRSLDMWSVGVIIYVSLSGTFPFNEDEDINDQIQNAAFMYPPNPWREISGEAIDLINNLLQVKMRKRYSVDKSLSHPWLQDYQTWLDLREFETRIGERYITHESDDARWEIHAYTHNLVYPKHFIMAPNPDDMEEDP

[2] = target: T2, Mitogen-activated protein kinase kinase kinase 15 (Homo sapiens) (UniProt Q6ZN16); assay: Selectivity interaction (KinomeScan (DiscoverX)) EUB0000092b MAP3K15; details: at 10 µM
T2 sequence (whole entry): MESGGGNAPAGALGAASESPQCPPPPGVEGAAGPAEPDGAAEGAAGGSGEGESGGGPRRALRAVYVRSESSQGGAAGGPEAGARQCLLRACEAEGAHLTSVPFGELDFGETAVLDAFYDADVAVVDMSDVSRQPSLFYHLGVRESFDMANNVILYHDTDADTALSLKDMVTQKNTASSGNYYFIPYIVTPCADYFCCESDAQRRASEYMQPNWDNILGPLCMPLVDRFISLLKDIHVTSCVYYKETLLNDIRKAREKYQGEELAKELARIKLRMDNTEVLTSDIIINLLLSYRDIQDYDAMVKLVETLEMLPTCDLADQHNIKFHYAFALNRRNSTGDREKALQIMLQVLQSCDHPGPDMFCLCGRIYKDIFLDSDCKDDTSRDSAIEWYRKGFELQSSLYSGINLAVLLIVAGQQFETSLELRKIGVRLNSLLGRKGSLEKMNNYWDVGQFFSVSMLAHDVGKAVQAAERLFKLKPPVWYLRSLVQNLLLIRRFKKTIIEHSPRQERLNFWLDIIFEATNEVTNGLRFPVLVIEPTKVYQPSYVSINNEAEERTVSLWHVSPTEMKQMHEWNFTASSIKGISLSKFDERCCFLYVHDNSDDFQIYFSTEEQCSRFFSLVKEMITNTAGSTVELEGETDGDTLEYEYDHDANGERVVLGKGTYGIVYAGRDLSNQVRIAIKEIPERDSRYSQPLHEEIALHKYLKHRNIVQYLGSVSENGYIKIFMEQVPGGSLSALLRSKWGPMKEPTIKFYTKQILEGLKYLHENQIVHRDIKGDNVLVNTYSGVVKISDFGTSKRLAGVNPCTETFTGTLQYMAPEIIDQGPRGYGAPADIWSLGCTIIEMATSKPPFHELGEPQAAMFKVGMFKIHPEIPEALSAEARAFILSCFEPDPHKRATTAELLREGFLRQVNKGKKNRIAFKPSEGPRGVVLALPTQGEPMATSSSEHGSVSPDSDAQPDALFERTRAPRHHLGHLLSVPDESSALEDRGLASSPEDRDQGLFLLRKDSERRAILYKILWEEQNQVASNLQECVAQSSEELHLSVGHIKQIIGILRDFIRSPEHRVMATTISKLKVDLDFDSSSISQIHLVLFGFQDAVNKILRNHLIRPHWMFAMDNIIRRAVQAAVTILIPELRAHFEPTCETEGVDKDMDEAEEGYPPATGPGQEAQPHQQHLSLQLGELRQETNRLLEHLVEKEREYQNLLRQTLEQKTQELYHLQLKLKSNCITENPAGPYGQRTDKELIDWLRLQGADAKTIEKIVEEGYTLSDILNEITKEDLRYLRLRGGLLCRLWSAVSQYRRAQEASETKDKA

[3] = target: Calcium/calmodulin-dependent protein kinase type II subunit alpha (Homo sapiens, UniProt Q9UQM7); details: at 10 µM
Chain of Calcium/calmodulin-dependent protein kinase type II subunit alpha (Q9UQM7 whole entry): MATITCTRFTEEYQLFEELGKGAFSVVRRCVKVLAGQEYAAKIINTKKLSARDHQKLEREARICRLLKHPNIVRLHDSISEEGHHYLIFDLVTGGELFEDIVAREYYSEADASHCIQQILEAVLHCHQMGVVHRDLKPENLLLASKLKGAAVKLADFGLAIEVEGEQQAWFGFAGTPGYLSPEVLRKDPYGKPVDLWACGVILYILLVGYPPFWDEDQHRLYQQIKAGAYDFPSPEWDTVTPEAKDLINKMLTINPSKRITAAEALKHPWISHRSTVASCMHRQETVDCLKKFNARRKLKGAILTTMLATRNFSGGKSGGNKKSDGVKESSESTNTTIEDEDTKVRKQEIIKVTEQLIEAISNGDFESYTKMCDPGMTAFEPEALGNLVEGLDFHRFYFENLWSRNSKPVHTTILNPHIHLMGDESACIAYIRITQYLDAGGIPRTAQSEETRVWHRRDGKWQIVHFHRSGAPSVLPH

[4] = target: Serine/threonine-protein kinase B-raf (Homo sapiens) (UniProt P15056); assay: Selectivity interaction (ActivX KiNativ screen (kinase selectivity in THP-1 cell lysates)) EUB0000639a BRAF; assay type: subcellular; details: lysate
Chain of Serine/threonine-protein kinase B-raf (Homo sapiens) (P15056 whole entry): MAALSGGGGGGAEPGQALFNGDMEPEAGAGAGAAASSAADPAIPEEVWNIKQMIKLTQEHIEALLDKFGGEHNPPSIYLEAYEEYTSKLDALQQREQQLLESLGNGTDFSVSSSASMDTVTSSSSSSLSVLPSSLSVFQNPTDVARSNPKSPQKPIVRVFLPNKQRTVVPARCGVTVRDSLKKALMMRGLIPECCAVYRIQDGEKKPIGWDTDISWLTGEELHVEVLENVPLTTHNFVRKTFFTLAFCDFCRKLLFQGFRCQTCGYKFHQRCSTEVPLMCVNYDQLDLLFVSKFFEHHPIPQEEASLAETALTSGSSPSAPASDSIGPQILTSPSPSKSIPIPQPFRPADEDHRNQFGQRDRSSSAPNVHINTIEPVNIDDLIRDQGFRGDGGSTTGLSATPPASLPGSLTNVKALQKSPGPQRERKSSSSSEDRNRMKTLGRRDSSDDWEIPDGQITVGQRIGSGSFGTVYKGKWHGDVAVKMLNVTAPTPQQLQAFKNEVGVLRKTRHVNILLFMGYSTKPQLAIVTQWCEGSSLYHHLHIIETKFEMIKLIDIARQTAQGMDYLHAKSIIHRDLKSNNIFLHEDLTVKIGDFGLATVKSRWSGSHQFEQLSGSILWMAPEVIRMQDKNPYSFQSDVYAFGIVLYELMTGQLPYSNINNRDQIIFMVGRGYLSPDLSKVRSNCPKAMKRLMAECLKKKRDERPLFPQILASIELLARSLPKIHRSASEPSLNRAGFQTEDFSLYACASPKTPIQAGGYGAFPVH

[5] = target: T3, Rhodopsin kinase GRK7 (Homo sapiens) (UniProt Q8WTQ7); assay: Selectivity interaction (KinomeScan (DiscoverX)) EUB0000695a GRK7; details: at 100 nM
T3 sequence (whole entry): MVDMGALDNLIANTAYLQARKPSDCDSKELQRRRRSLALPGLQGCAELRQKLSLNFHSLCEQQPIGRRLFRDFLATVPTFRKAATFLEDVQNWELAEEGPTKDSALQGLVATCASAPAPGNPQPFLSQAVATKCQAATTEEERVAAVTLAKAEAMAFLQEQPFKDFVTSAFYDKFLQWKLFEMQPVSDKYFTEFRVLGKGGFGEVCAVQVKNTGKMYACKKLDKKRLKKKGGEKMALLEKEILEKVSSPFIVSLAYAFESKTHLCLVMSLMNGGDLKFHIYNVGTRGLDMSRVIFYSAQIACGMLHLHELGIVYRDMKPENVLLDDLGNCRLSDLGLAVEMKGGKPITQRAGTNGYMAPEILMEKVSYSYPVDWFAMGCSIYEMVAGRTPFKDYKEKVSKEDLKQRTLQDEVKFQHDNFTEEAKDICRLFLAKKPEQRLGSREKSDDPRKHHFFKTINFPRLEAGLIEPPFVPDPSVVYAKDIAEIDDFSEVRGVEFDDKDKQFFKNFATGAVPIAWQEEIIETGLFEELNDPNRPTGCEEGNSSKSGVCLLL

[6] = target: Mast/stem cell growth factor receptor Kit (Homo sapiens, UniProt P10721); assay: Selectivity interaction (Kinase screening (Nanosyn)) EUB0000604a KIT
Chain of Mast/stem cell growth factor receptor Kit (P10721 whole entry): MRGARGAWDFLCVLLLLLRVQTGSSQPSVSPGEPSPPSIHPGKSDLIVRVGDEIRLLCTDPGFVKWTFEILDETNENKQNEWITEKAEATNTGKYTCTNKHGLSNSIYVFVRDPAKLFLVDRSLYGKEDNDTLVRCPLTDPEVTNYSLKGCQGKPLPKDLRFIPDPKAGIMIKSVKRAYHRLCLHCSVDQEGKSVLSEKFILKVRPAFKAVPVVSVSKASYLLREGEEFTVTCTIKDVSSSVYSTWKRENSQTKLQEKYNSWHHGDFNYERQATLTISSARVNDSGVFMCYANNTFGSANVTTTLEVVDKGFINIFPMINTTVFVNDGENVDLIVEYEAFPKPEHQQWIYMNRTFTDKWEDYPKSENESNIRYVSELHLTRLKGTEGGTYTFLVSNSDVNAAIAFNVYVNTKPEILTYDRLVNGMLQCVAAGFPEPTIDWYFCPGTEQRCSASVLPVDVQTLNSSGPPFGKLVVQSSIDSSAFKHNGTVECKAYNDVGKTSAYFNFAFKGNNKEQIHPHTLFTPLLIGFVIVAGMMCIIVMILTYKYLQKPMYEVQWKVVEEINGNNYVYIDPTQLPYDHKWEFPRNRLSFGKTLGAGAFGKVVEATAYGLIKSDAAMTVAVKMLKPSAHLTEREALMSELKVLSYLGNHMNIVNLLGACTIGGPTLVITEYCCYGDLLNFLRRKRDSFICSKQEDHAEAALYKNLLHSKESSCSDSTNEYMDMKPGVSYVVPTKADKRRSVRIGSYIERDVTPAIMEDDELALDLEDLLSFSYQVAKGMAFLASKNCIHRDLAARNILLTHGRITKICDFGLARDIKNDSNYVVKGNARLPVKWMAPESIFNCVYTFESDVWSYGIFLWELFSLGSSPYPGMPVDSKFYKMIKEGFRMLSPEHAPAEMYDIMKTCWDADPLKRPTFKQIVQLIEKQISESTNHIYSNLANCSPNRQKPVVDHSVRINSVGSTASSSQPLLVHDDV

`COc1cc(N(C)c2ccnc3ccc(C(F)(F)F)cc23)cc(OC)c1OC` gave a % binding [1] of 58%.
For `CCC(=O)N1CCN(c2ccc(-n3c(=O)ccc4cnc5ccc(-c6cnc7ccccc7c6)cc5c43)cc2C(F)(F)F)CC1`, the % of control [2] was 100%.
With `Cc1cc([C@@H](C)Nc2ccccc2C(=O)O)c2nc(N3CCOCC3)cc(=O)n2c1` [AZD-6482] the % of control [3] was 75%.
`CC[C@@H]1[C@H](F)C(=O)N[C@@H]1COc1nccc2cc(C(N)=O)c(OC)cc12` [ZIMLOVISERTIB] was tested, and the % of inhibition ([4]; at 0.01 µM) was 7.3%, the % of inhibition ([4]; at 0.04 µM) was 15.4% and the % of inhibition ([4]; at 0.2 µM) was -0.2%. The % of inhibition ([4]; at 1 µM) was -0.4% and the % of inhibition ([4]; at 5 µM) was -15.5%.
In the case of `Cc1cc(F)c(C(=O)Nc2cccc(-c3nncn3C(C)C)n2)cc1-n1cnc(C2CC2)c1`, the % of control [5] is reported as 97%.
In the case of `Cc1cnc(Nc2ccc(F)cc2Cl)nc1-c1c[nH]c(C(=O)N[C@H](CO)c2cccc(Cl)c2)c1`, the % of inhibition [6] is reported as 8%.
